# Source: patent US8017649B2, “Flavonoid compounds and uses thereof” (Howard Florey Institute of Experimental Physiology and …, priority 2005, dated 2011)
# “Also recorded” adds a separate entry of the source.
# B1: BuCHE: butyryl cholinesterase, esterase used to cleave the adipate (protein, UniProt P06276 29-602, looked up)
# Cholinesterase: EDDIIIATKNGKVRGMNLTVFGGTVTAFLGIPYAQPPLGRLRFKKPQSLTKWSDIWNATKYANSCCQNIDQSFPGFHGSEMWNPNTDLSEDCLYLNVWIPAPKPKNATVLIWIYGGGFQTGTSSLHVYDGKFLARVERVIVVSMNYRVGALGFLALPGNPEAPGNMGLFDQQLALQWVQKNIAAFGGNPKSVTLFGESAGAASVSLHLLSPGSHSLFTRAILQSGSFNAPWAVTSLYEARNRTLNLAKLTGCSRENETEIIKCLRNKDPQEILLNEAFVVPYGTPLSVNFGPTVDGDFLTDMPDILLELGQFKKTQILVGVNKDEGTAFLVYGAPGFSKDNNSIITRKEFQEGLKIFFPGVSEFGKESILFHYTDWVDDQRPENYREALGDVVGDYNFICPALEFTKKFSEWGNNAFFYYFEHRSSKLPWPEWMGVMHGYEIEFVFGLPLERRDNYTKAEEILSRSIVKRWANFAKYGNPNETQNNSTSWPVFKSTEQKYLTLNTESTRIMTKLRAQQCRFWTSFFPKVLEMTGNIDEAEWEWKAGFHRWNNYMMDWKNQFNDYTSKKESCVGL
# Assays:
# [1] = tested on: rat aorta precontracted with PE; experiment: Direct relaxation of PE/U46619-precontracted rat aortic rings; assay type: cell-based; settings: substance alone
# Experimental: Following testing of endothelial integrity, rings were repeatedly washed and re-equilibrated for 30 minutes before the addition of PE (10^−8−2×10^−7 M) and 9,11-dideoxy-9α, 11α-epoxymethano-prostaglandin F2α (U46619, 10^−9-10^−8 M) to produce an active force in the range of 40-60% of KPSS-induced contraction. The level of precontraction was matched between the various groups by adjusting the concentrations of PE and U46619. Cumulative concentration-response curves in the range 10^−8-10^−4 M were conducted for 3′,4′-dihydroxyflavonol, 3-hydroxyflavone-3-hemiadipate, 3′,4′-dihydroxy-3-hemiadipate, 3-hydroxyflavone-3-phosphate.
# Experiments were conducted in the presence of an esterase, butyryl cholinesterase (BuCHE, 1000 U/L) for the hemiadipate derivates and a phosphatase 1000 U/L) in the case of the phosphate derivatives.
# Following testing of endothelial integrity, rings were repeatedly washed and re-equilibrated for 30 minutes before the addition of PE (10^−8−2×10^−7 M) and 9,11-dideoxy-9α, 11α-epoxymethano-prostaglandin F2α (U46619, 10^−9-10^−7 M) to produce an active force in the range of 40-60% of KPSS-induced contraction. Cumulative concentration-response curves in the range 10^−7-10^−4 M were conducted for vehicle, 3′-hydroxyflavonol, F3HA, DiOHF3HA, F3P. Experiments were conducted in the presence and absence of 1000 U/L BuCHE to cleave the adipate in F3HA and DiOHF3HA. In experiments using F3P 1000 U/L phosphatase was used in some experiments to cleave the phosphate.
# [2] = tested on: superoxide anions generated in rat aorta; experiment: Superoxide anion production in rat isolated aortic segments (lucigenin chemiluminescence, NADPH); assay type: cell-based; settings: for superoxide levels: highest concentration tested (0.1 mM)
# Experimental: Superoxide anion production in rat isolated aortic segments was determined using lucigenin chemiluminescence. Aortic rings were prepared as described above and then placed in ice-cold Krebs-(N-[2-Hydroxyethyl]piperazine-N′-[2-ethanesulfonic acid] (HEPES buffer) (composition (mM); NaCl 99.0, KCl 4.7, KH2PO4 1.0, MgSO4·7H2O 1.2, D-glucose 11.0, NaHCO3 25.0, CaCl2·2H2O 2.5, Na-HEPES 20.0). Aortic rings were pre-incubated for 45 minutes at 37° C. with a pH 7.4, in Krebs-HEPES buffer containing diethylthiocarbamic acid (DETCA, 10^−3 M) to inactivate superoxide dismutase and β-nicotinamide adenine dinucleotide phosphate (NADPH, 10^−4 M) as a substrate for NADPH oxidase and either 3′,4′-dihydroxyflavonol (10^−4 M) as a positive control, vehicle, 3-hydroxyflavone-3-hemiadipate, 3′,4′-dihydroxy-3-hemiadipate, 3-hydroxyflavone-3-phosphate (10^−8-10^−4 M). Background photon emission was measured for 12 cycles in a 96-well Optiplate containing 0.3 ml per well of Krebs-HEPES buffer together with lucigenin (5×10^−5 M) and vehicle or flavonoid (10^−8-10^−4 M). Each cycle was counted every one minute. After background reading was completed the incubated aortic rings were transferred to the appropriate wells and photon emission was recounted as described above. The tissue was then placed in a 65° C. oven for 48 hours to allow superoxide production to be normalised to dry tissue weight.
# The effects of vehicle, 3′,4′-dihydroxyflavone-3-hemiadipate (21) (DiOHF3HA, 10^−8 M-10^−4 M) and DiOHF (10^−4 M) in the presence and absence of Butyryl cholinesterase (BuCHE), 100, 300 and 1000 U/L) on the level of superoxide anions generated in rat isolated aortic segments in the presence of NADPH was expressed as a percentage of control. The method used was as described above except for the addition of the butyryl cholinesterase.
# The effect of vehicle, 3-hydroxyflavone-3-phosphate (10^−8 to 10^−4 M) in the presence or absence of phosphatase (1000 U/L) on the level of superoxide anions generated in rat aorta in the presence of NADPH expressed as a percentage of control was determined as described above for the 3′,4′-dihydroxyflavone-3-hemiadipate.
# anaesthetised rats = experiment: Arterial pressure and heart rate in anaesthetised rats after intravenous injection; assay type: in vivo, rat; settings: intravenous, anaesthetised rats
# Experimental: A unit dosage of an aqueous solution of 3-hydroxyflavone-3-hemiadipate (15) was administered to a group of male anesthetized Sprague Dawley rats intravenously and the blood pressure monitored over a period of time.
# Male Sprague-Dawley rats (250-350 g) were anaesthetised with pentobarbitone sodium (60 mg kg^−1, ip). The trachea was isolated and cannulated with polyethylene tracheal tube (I.D. 2.0 mm), and the rat was allowed to breathe spontaneously.
# The right carotid artery was cannulated and connected with a heparinised saline filled cannula (O.D. 0.75, I.D, 0.58 mm) and connected to a pressure transducer. Mean and phasic arterial pressure were continuously measured and recorded on a polygraph. The heart rate, was derived from the phasic arterial pressure using a tachometer.
# DiOHF3HA ([…]) was injected intravenously, allowing at least 30 min between injections, and the peak changes in mean arterial pressure and heart rate measured. […] In a separate group of experiments ACh (0.3 mg/kg iv) and phenylephrine (PE, […]) were injected before and 30 minutes after DiOHF3HA (3 mg/kg iv), a time when arterial pressure and heart rate had returned to control levels. […]
# [3] = tested on: endothelium intact aortic rings; experiment: Ca2+-induced contraction of rat aortic rings in Ca2+-free high-K+ solution; assay type: cell-based
# Experimental: To determine the effect of flavonoids on responses to the influx of extracellular Ca^2+, contractile responses to exogenous application of Ca^2+ were examined in the presence of flavonoids in Ca^2+-free high-K^+ solution (60 mM, KPSS). Aortic rings were initially equilibrated at a resting tension of 1 g in normal Ca^2+-free PSS for 45 minutes. The bath medium was then replaced with Ca^2+-free KPSS for 45 minutes to determine a reference contraction to Ca^2+ (3×10^−3 M). Following a 30 minute re-equilibration period with Ca^2+-free PSS, the cumulative contractile responses to Ca^2+ (10^−5−3×10^−3 M) were determined in KPSS in the presence of a range of concentrations (10^−8-10^−4 M) of vehicle, 3′,4′-dihydroxyflavonol, 3-hydroxyflavone-3-hemiadipate, 3′,4′-dihydroxy-3-hemiadipate, 3-hydroxyflavone-3-phosphate. A 20 minute incubation period was allowed for the flavonoids before examining the responses to Ca^2+.
# To determine the effect of flavonoids on responses to the influx of extracellular Ca^2+, contractile responses to exogenous application of Ca^2+ were examined in the presence of flavonoids in Ca^2+-free high-K^+ solution (60 mM, K+-PSS). Aortic rings were initially equilibrated at a resting tension of 1 g in Ca^2+-free PSS for 45 minutes. The bath medium was then replaced with Ca^2+-free K+-PSS for 45 minutes to determine a reference contraction to added Ca^2+ (3 mM). Following a 30 minute re-equilibration period with Ca^2+-free PSS, the cumulative contractile responses to Ca^2+ (10^−5−3×10^−3 M) were determined in K^+ PSS in the presence of vehicle (0.1% DMSO), or a range of concentrations (10^−7-10^−4 M) of 3′-hydroxyflavonol, F3HA, DiOHF3HA or F3P. A 20 minute incubation period was allowed for the flavonoids before examining the responses to Ca^2+. Experiments were conducted in the presence and absence of BuCHE (1000 U/L) to cleave the adipate in F3HA and DiOHF3HA. In experiments using F3P, phosphatase (1000 U/L) was used in some experiments to cleave the phosphate.
# aortic rings = experiment: Effect on SNP relaxation of precontracted rat aortic rings; assay type: cell-based; settings: substance alone
# Experimental: (§1) After wash out and re-equilibration for 30 min, the aortic rings were then submaximally precontracted with PE and U46619, which were used to produce an active tension of 45-60% of the KPSS-induced maximum contraction. When investigating the effects of the flavonoids, flavonol, flavone-3-hemiadipate (F3HA), 3′, 4′-dihydroxyflavone, 3′,4′-dihydroxyflavonol, 3′,4′-dihydroxyflavone-3-hemiadipate (DiOHF3HA), and flavone-3-phosphate (F3P) on vasorelaxant responses, rings were incubated with one of the compounds for 20 mins before they were precontracted submaximally, followed by a cumulative-concentration response curve to ACh (100 nM-10 μM) or SNP ([…]). In experiments using F3P 1000U/L phosphatase was used in some experiments to cleave the phosphate. Some experiments were conducted in the presence and absence of butyryl cholinesterase (BuCHE, 1000 U/L) to cleave the adipate in DiOHF3HA and F3HA.
# [4] = tested on: endothelium intact aortic rings; experiment: Effect on ACh relaxation of precontracted rat aortic rings; assay type: cell-based; settings: substance alone
# Experimental: as §1
# [5] = substance alone, no added esterase/phosphatase, up to 10^−4 M, NADPH
molecule,measurement,setting,value
"O=c1cc(-c2ccc(O)c(O)c2)oc2ccccc12 [DiOHFne, 3′,4′-dihydroxyflavone, reference compound]",direct relaxing effect on precontracted vessels,[1],concentration-dependent relaxation of rat aorta which was weaker than the effect of DiOHF
same,superoxide levels,[2],36±3 % of control
same,effect on superoxide generation,[2]; [5],concentration dependent decreases in superoxide levels
"O=C(O)CCCCC(=O)Oc1c(-c2ccccc2)oc2ccccc2c1=O [F3HA, Flavone-3-hemiadipate]",change in mean arterial pressure (MAP),anaesthetised rats,significant reduction in the blood pressure
same,effect on Ca^2+-induced contraction,"[3]; alone, highest concentration 10^−4 M",only inhibited contractile responses to increasing concentrations of extracellular calcium at the highest concentration tested
same,effect on Ca^2+-induced contraction,"[3]; alone, highest concentration 10^−4 M, listed as flavone-3-hemiadipate",some inhibitory effect
same,effect on Ca^2+-induced contraction,"[3]; alone, lower concentrations 10^−8 to 10^−5 M",did not effect Ca^2+ contraction
same,effect on Ca^2+-induced contraction,[3]; in the presence of BuCHE or phosphatase (1000 U/L),inhibit calcium-induced contraction
same,effect on superoxide generation,"[2]; in the presence of cleaving enzyme (BuCHE for hemiadipates, phosphatase for phosphate, 1000 U/L)",concentration dependent increase in the inhibitory effect
same,effect on superoxide generation,"[2]; in the presence of cleaving enzyme (BuCHE for hemiadipates, phosphatase for phosphate, 1000 U/L), listed as flavone-3-hemiadipate",concentration-dependent inhibitory effect
same,effect on superoxide generation,[2]; [5],no inhibitory effect on superoxide generation; also recorded: no antioxidant or vascular activity
same,effect on superoxide generation,"[2]; substance alone, no added esterase/phosphatase, up to 10^−4 M, NADPH, listed as Flavone-3-hemiadipate",no effect on the superoxide production
same,effect on superoxide generation,"[2]; substance alone, no added esterase/phosphatase, up to 10^−4 M, NADPH, listed as flavone-3-hemiadipate",no effect on the superoxide production at any concentration
"O=c1c(O)c(-c2ccccc2)oc2ccccc12 [Flavonol, reference compound]",effect on relaxant response to SNP,aortic rings,did not affect
same,effect on relaxant response to ACh,[4],did not affect
same,effect on Ca^2+-induced contraction,"[3]; alone, over the concentration range tested",concentration dependent decreases in calcium-induced contraction
same,superoxide levels,[2],36±3 % of control
same,effect on superoxide generation,[2]; [5],concentration dependent decreases in superoxide levels
B1,direct relaxing effect on precontracted vessels,[1],no effect on PE precontracted vessels
